Data published in BindingDB's records for doi:10.7270/Q2KH0KWR (Burnham Center For Chemical Genomics, 2012).

Biological target: T1, Tyrosine-protein phosphatase non-receptor type 5 (Homo sapiens, UniProt P54829)
T1 sequence (P54829 whole entry): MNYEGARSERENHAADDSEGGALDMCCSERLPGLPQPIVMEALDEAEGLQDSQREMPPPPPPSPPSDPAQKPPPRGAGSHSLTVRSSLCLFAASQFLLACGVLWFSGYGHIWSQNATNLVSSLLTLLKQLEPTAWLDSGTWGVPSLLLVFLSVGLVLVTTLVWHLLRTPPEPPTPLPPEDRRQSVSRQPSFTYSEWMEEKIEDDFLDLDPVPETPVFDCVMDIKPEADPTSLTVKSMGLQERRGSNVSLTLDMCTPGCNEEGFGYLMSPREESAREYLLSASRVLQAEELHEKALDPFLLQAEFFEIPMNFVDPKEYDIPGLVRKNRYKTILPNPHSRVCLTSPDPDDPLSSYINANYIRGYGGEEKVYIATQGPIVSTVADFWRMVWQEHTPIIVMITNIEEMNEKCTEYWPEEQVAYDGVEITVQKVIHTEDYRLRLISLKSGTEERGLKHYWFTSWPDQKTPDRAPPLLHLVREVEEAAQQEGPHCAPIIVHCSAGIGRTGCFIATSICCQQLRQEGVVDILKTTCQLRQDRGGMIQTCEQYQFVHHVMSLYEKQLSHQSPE
Experiment: STEP phosphatase inhibitor potency, dose response, orthogonal assay for STEP inhibitor project, biochemical, colorimetric absorbance (AID 624207)
Conditions: not given

IC50	Compound
7.9 µM	CN(C)c1ccc(C(=O)OCC(=O)Nc2ccc(S(N)(=O)=O)cc2)cc1 [4-(dimethylamino)benzoic acid [2-oxo-2-(4-sulfamoylanilino)ethyl] ester]
> 80 µM	S=c1[nH]nc(-c2cccnc2)n1N=Cc1ccc(Br)s1 [4-[(E)-(5-bromothiophen-2-yl)methylideneamino]-3-pyridin-3-yl-1H-1,2,4-triazole-5-thione]
> 80 µM	O=C(COc1ccc([N+](=O)[O-])cc1)Nc1nnc(-c2cccnc2)s1 [SMR000385697]
10.6 µM	COc1ccc(NC(=S)N(CCC(C)C)C2CCN(C(C)C)CC2)cc1Cl [3-(3-chloranyl-4-methoxy-phenyl)-1-(3-methylbutyl)-1-(1-propan-2-ylpiperidin-4-yl)thiourea]
5.83 µM	CC1=C(C(=O)OC(C)C)C(c2ccc(Cl)cc2)n2c(s/c(=C\c3ccc(OCC(=O)O)cc3)c2=O)=N1 (centres undefined) [{4-[(5-(4-chlorophenyl)-6-(isopropoxycarbonyl)-7-methyl-3-oxo-5H-[1,3]thiazolo[3,2-a]pyrimidin-2(3H)-ylidene)methyl]phenoxy}acetic acid]
> 80 µM	COc1ccccc1Nc1ccc([N+](=O)[O-])cc1N [SMR000260154]
> 80 µM	O=C(N/N=C/c1ccoc1)c1cc(O)cc(O)c1 [N-[(E)-furan-3-ylmethylideneamino]-3,5-dihydroxybenzamide]
> 80 µM	COc1cc(NC(=S)N2CCN(C)CC2)c(OC)cc1Cl
> 80 µM	O=C(N/N=C/c1coc2ccccc2c1=O)c1cc2ccccc2o1 [MLS000700471]
> 80 µM	NS(=O)(=O)c1ccc(N/C(S)=N\CCc2ccccc2)cc1 [MLS000621468]
> 80 µM	Cc1ccc(-c2nc(NC(=O)CSc3cc(C)c4ccccc4n3)ns2)cc1 [2-[(4-methyl-2-quinolyl)thio]-N-[5-(p-tolyl)-1,2,4-thiadiazol-3-yl]acetamide]
> 80 µM	N=C1S/C(=C\c2ccc(O)cc2)C(=O)N1c1ccc(F)cc1 [SMR000298434]

Compound	IC50
CCN(CC)P(=O)(NC(=O)C(Cl)(Cl)Cl)N(CC)CC [MLS000564159]	77.5 µM

Same assay, conditions: inactive by the depositor's call

IC50	Compound
60.5 µM	Cn1c(=O)[nH]c(=O)c2c1nc(SCCN1CCCCC1)n2CCCc1ccccc1 [3-methyl-7-(3-phenylpropyl)-8-[2-(1-piperidinyl)ethylthio]purine-2,6-dione]
57 µM	OCCN1CCN(C(=S)c2ccc(Br)cc2)CC1 [MLS000577024]
44.7 µM	COc1cc(/C=N/NC(=O)c2ccccc2O)ccc1OCC(=O)Nc1ccccc1 [SMR000515267]
29.7 µM	COc1ccccc1NS(=O)(=O)c1cc(NC(=S)NCCN2CCOCC2)ccc1N1CCOCC1 [MLS000409155]
23.6 µM	O=C(COc1ccc(/C=N/NC(=O)c2ccccc2O)cc1)Nc1ccccc1 [N-[(E)-[4-(2-anilino-2-oxoethoxy)phenyl]methylideneamino]-2-hydroxybenzamide]
25.9 µM	NC(=O)C1(N2CCCCC2)CCN(C(=S)Nc2ccc(S(N)(=O)=O)cc2)CC1 [1'-({[4-(aminosulfonyl)phenyl]amino}carbonothioyl)-1,4'-bipiperidine-4'-carboxamide]
37.9 µM	O=C(CCc1ccccc1)NNC(=O)c1ccc(NC(=O)c2ccccc2)cc1
54.9 µM	S=C(c1ccc(Br)cc1)N1CCN(Cc2ccccc2)CC1 [(4-bromophenyl)-[4-(phenylmethyl)-1-piperazinyl]methanethione]
45.6 µM	O=C(N/N=C/c1cccnc1)c1ccc(NC(=O)c2cccc(Cl)c2)cc1 [3-chloro-N-[4-[oxo-[(2E)-2-(3-pyridinylmethylidene)hydrazinyl]methyl]phenyl]benzamide]
41.5 µM	CN1CCN(C(S)=Nc2ccc(S(N)(=O)=O)cc2)CC1 [N-[4-(aminosulfonyl)phenyl]-4-methyl-1-piperazinecarbothioamide]
44.3 µM	CCOC(=O)c1c(NC(=O)OC)sc(C(=O)N(CC)CC)c1C [ethyl 5-(diethylcarbamoyl)-2-(methoxycarbonylamino)-4-methylthiophene-3-carboxylate]
